Laboratory results from PMC6421026, “Interaction of Anticancer Drugs with Human Organic Anion Transporter hOAT4” (Journal of Oncology, 2019).
Counter-ions that a name gives are not always drawn.

Legend:
[1] = target: T1, human organic anion transporter 4 (hOAT4) (Homo sapiens, UniProt Q9NSA0); experiment: inhibition of [3H]-estrone sulfate uptake in stable hOAT4-expressing COS-7 cells, Dixon plot (IC50 […]); trans-inhibition; format: cell-based
T1 construct: gene SLC22A11
T1 sequence (Q9NSA0 1-550): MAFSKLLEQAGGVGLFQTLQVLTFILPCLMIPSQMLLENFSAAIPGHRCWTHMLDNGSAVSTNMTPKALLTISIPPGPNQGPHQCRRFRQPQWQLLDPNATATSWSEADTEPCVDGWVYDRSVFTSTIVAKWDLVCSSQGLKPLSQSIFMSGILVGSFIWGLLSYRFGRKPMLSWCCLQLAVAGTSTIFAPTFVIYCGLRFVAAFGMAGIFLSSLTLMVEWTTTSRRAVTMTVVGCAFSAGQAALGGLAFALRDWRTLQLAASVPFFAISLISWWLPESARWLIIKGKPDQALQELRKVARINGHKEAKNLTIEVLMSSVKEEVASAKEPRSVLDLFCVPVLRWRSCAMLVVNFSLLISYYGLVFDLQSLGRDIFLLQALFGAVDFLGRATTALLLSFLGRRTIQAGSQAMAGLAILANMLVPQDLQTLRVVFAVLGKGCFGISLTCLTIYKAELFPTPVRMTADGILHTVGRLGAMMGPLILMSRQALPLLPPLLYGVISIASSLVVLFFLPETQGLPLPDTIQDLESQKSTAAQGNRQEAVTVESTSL

[2] = target: T1, human organic anion transporter 4 (hOAT4); experiment: inhibition of [3H]-estrone sulfate uptake in stable hOAT4-expressing COS-7 cells, Dixon plot (IC50 […]); format: cell-based

| Ki [1] [µM] | SMILES | Ki [2] [µM] |
| --- | --- | --- |
| 4.26 | CC(C)(C)c1nc(-c2cccc(NS(=O)(=O)c3c(F)cccc3F)c2F)c(-c2ccnc(N)n2)s1 [Dab, dabrafenib mesylate] | – |
| – | COc1cccc2c1C(=O)c1c(O)c3c(c(O)c1C2=O)C[C@@](O)(C(=O)CO)C[C@@H]3O[C@H]1C[C@H](N)[C@@H](O)[C@H](C)O1 [epirubicin hydrochloride] | 3 |
